Measured values published in patent US20230285498A1, “TREATMENTS FOR CANCERS HAVING KRAS MUTATIONS” (City of Hope, priority 2020, published 2023).

What was measured:
H358 spheroids = assay: 3D spheroid assay; type: cell-based
Method: (§1) The activation of apoptosis is marked with the increase in green fluorescence intensity.
(§2) To determine the sensitivities of the same cells in 3D, mKate expressing cells were used to generate spheroids. Spheroids were monitored in real time using the IncuCyte live cell imaging system (FIG. 1B).
(§3) Cell proliferation and apoptosis assay: Cell proliferation assays were performed using cell lines stably transfected with NucLight Red Lentivirus (Essen BioScience) to accurately visualize and count the nucleus of a single cell. Cells were seeded on a 96-well plate and allowed to adhere for 24 h. Test compounds were added at indicated concentrations. Caspase-3/7 Green Apoptosis Reagent (Essen BioScience) was also added as a green fluorescent indicator of caspase3/7-mediated apoptotic activity. To monitor cell proliferation and apoptosis over time, the plate was placed in the IncuCyte S3 Live Cell Imaging System (Essen BioScience) and images were acquired every 2 hours. Data analysis was generated by the IncuCyte software using a red fluorescence mask to accurately count each cell nucleus and a green fluorescence mask to measure apoptosis over time. 3D spheroid assay 3D spheroid experiments were performed using cell lines stably transfected with NucLight Red Lentivirus (Essen BioScience) to visualize red fluorescence as an indicator of cell viability. Cells were seeded on a 96-well ultra-low attachment plate and allowed to form spheroids overnight. Drug treatment was added as indicated along with Cytotox Green Reagent (Essen BioScience), used as a green fluorescence indicator of cell death due to loss of cell membrane integrity. To monitor cell proliferation and apoptosis over time, the plate was placed in the IncuCyte S3 Live Cell Imaging System (Essen BioScience) and images were acquired every 2 hours. Data analysis was generated by the IncuCyte software using a red fluorescence mask to accurately measure intensity and area of red fluorescence, indicating spheroid viability and a green fluorescence mask, indicating cell death. Cell cycle analysis.

H23 spheroids = assay: 3D spheroid assay; type: cell-based
Method: as §1, §2, §3

SW1573 spheroids = assay: 3D spheroid assay; type: cell-based
Method: as §1, §2, §3

SW1573 cells [1] = assay: Protein array of global phosphorylation changes; type: cell-based; details: IC50 concentration; 72 hours
Method: The phosphorylation changes were analyzed employing the AVM BioMed protein array platform.

SW1573 cells [2] = assay: Cell cycle analysis (FACS); type: cell-based; details: 20 μM, 72 hours
Source text: Using commercially available lentiviral particles (Essen Bioscience Inc.), a SW1573 stable cell line was developed to determine the dynamics of the cell cycle in response to the KRAS inhibitors. In the G1 phase, these cells express the red fluorescent protein and in G2, they express the green fluorescent protein, and cells transitioning from G1 to […], express both the proteins giving rise to yellow florescence.
Cell cycle analysis. […] The stable cell line was generated using the puromycin selection media. Yellow cells are indicative of cell cycle transition from G1 to S while non-fluorescent cells are moving from M to G1.

[3] = test system: WNT2, CFTR and CCL2 expression in H23 cells; assay: qPCR validation of RNAseq; type: cell-based
Method: The drug treatment what initiated at dose of 1 μM which was finally raised up to 7.5 μM. […] Further, using qPCR assay we validated the RNAseq data and observed more than 40 fold induction in expression of various genes such as WNT2, CFTR and CCl2. (FIGS. 17D-17F). Further the analysis also identified activation of MYC and E2F Target Hall Mark Pathways which may help H23 cells in withstanding drug toxicity (data not shown).
Quantitative real-time PCR and RNAseq: Quantitative real-time PCR (qPCR) reactions were performed using TaqMan Universal PCR Master Mix (Thermo Fisher Scientific, Waltham, Mass.) and analyzed by the Quant Studio? Real-time PCR system (Life Technologies, Grand Island, N.Y.). Total RNA isolation and on-column DNase digestion from cells were performed basing on the manufacturer's protocol RNeasy Plus Mini Kit (Qiagen Cat #: 74134). 1 ug of RNA was used to synthesize the cDNA according to the one step cDNA synthesis kit from QuantaBio (Cat #: 101414-106). TaqMan probes were purchased from ThermoFisher (Waltham, Mass.). The mRNA expression was analyzed using multiplex PCR for the gene of interest and GAPDH as a reference using two independent detection dyes FAM probes and VIC probes respectively. Relative mRNA expression was normalized to GAPDH signals and calculated using the delta Ct method.

H23 cells = assay: Zebrafish larvae H23 xenotransplant; type: in vivo; details: 72 h, 12 µM
[4] = test system: H23 sotorasib (20 μM)-resistant cells; assay: Cell proliferation, isogenic sotorasib resistant line; type: cell-based; details: ITGB4/β-catenin double knockdown together with sotorasib; 96 hours
Source text: Next, it was sought to determine cell proliferation changes with the combination treatment.

SW1463 = assay: Cell proliferation, colorectal G12C homozygous cell line; type: cell-based; details: Homo sapiens, SW1463, read-out: inhibition of proliferation
Source text: For this experiment the inventors chose SW837 and SW1463 colorectal cell line. The SW837 cell is heterozygous for the G12C mutation whereas the SW1463 is homozygous for the G12C mutation. A stable cell line expressing mKATE2 for Incucyte live cell imaging and analysis was generated.

SW1573 = assay: Drug combination synergy assay (inhibition matrix); type: cell-based; details: Homo sapiens, read-out: inhibition of cell growth
Method: The synergy finder codes were used to determine the synergy between drugs for 48 possible combinations. The codes were run using the R-platform and synergy was calculated and represented as the synergy landscape.
Drug Combination Synergy Assay: For combination index (CI) calculation, SW1573 and H23 incured cell lines were seeded in 96-well plate with 5000 cells per well. Three biological replicates (three 96-well plates for each drug combination) were used. […] The drugs were used in linear dilution series with dilution factor of 2. […] Further, R package called SynergyFinder (He et al., 2018) was used to find the nature of drug-drug interaction (i.e. if they work in synergy or antagonistically or non-interactively). For this purpose, the drug response matrix is supplied to the mentioned package, which then uses several models namely Highest Single Agent (Berenbaum, 1989), Loewe additivity (Loewe, 1953), Bliss independence (Bliss, 1939) and Zero Interaction Potency (Yadav et al., 2015) to quantify the degree of drug synergy. The dose response matrix was used to calculate individual CI values for IC30, IC50 and IC70 drug treatments. The output values were used to plot isobolograms using the following formula. CI=IC50 (A) pair IC50 (A)+IC50 (B) pair IC50 (B)

C=CC(=O)N1CCN(c2nc(=O)n(-c3c(C)ccnc3C(C)C)c3nc(-c4c(O)cccc4F)c(F)cc23)[C@@H](C)C1 [sotorasib]
drop in spheroid red intensity (H358 spheroids; H358, 0.3 μM): about 80%
inhibition at 0.3 µM (H358 spheroids; Homo sapiens, NCI-H358, H358, 0.3 μM, read-out: inhibition of spheroid area): 90%
IC50 (H358 spheroids; Homo sapiens, NCI-H358, H358 spheroid, read-out: IC50 in cell line derived spheroid): 0.0022 µM
drop in spheroid red intensity (H23 spheroids; H23, 0.3 μM): about 40%
inhibition at 0.3 µM (H23 spheroids; H23, 0.3 μM, read-out: inhibition of spheroid area): 70%
spheroid red intensity dropped to (H23 spheroids; H23, 10 μM): 80%
IC50 (H23 spheroids; H23 spheroid, read-out: IC50 in cell line derived spheroid): 12.3 µM
inhibition at 0.3 µM (SW1573 spheroids; Homo sapiens, SW1573, 0.3 μM, read-out: inhibition of spheroid area): 30%
inhibition at 10 µM (SW1573 spheroids; Homo sapiens, SW1573, 10 μM, read-out: inhibition of spheroid area / reduction in spheroid growth): ~40%
IC50 (SW1573 spheroids; Homo sapiens, SW1573 spheroid, read-out: IC50 in cell line derived spheroid): 12.6 µM
spheroid red intensity dropped to (SW1573 spheroids; SW1573, 10 μM): 70%
number of proteins with phosphorylation changes unique to the treatment (SW1573 cells [1]): 1482 proteins
number of proteins with significant phosphorylation changes (SW1573 cells [1]): 1764 proteins
G2 population (SW1573 cells [2]; from 26%): 11%
G1 population (SW1573 cells [2]; from about 39%): 62%
induction in expression of WNT2, CFTR and CCL2 (qPCR) [3]: more than 40 fold
reduction of tumor growth (median) (H23 cells): about 80%
sensitization of isogenic resistant line [4]: 70%
inhibition at 10 µM (SW1463): 40%
inhibition at 16 µM (SW1573): ~10%
